Where two headings read alike, the source gives them in different places.
How the values were obtained:
NCI-H358 (K-Ras G12C) = assay: CellTiter-Glo cell viability assay, NCI-H358; assay type: cell-based, human; conditions: NCI-H358, 5-day treatment, class symbols, read-out: Additional H358 Cell Viability assay data (K-Ras G12C, IC50)
Description: Note—The following protocol describes a procedure for monitoring cell viability of K-Ras mutant cancer cell lines in response to a compound of the invention. Other RAS isoforms may be employed, though the number of cells to be seeded will vary based on cell line used.
Test compounds (132.5 nL) were directly dispensed into the assay plates containing cells. […] On day 5, assay plates and their contents were equilibrated to room temperature for approximately 30 minutes. […] Luminescence was measured using the PerkinElmer Enspire. Data were normalized by the following: (Sample signal/Avg. DMSO)*100. The data were fit using a four-parameter logistic fit.

[1] = test system: NCI-H358 cells (K-Ras G12C); assay: Potency assay: pERK in NCI-H358 cells; assay type: cell-based, human; conditions: Homo sapiens, NCI-H358; H358 KRAS G12C; read-out: pERK EC50
Description: The purpose of this assay is to measure the ability of test compounds to inhibit K-Ras in cells. […] This procedure measures a decrease in cellular pERK in response to test compounds.
NCI-H358 cells were grown and maintained using media and procedures recommended by the ATCC. On the day prior to compound addition, cells were plated in 384-well cell culture plates (40 μl/well) and grown overnight in a 37° C., 5% CO2 incubator. Test compounds were prepared in 10, 3-fold dilutions in DMSO, with a high concentration of 10 mM. On the day of assay, 40 nL of test compound was added to each well of cell culture plate using an Echo550 liquid handler (LabCyte®). Concentrations of test compound were tested in duplicate. After compound addition, cells were incubated 4 hours at 37° C., 5% CO2. Following incubation, culture medium was removed and cells were washed once with phosphate buffered saline.
In some experiments, cellular pERK level was determined using the AlphaLISA SureFire Ultra p-ERK1/2 Assay Kit (PerkinElmer). Cells were lysed in 25 μL lysis buffer, with shaking at 600 RPM at room temperature. […] After a 2-hour incubation in the dark, 5 μL donor mix was added, plate was sealed, and incubated 2 hours at room temperature. Signal was read on an Envision plate reader (PerkinElmer) using standard AlphaLISA settings. Analysis of raw data was carried out in Excel (Microsoft) and Prism (GraphPad). Signal was plotted vs. the decadal logarithm of compound concentration, and IC50 was determined by fitting a 4-parameter sigmoidal concentration response model.
In other experiments, cellular pERK was determined by In-Cell Western. […] Fixed cells were washed 4 times for 5 minutes with TBS containing 0.1% Triton X-100 (TBST) and then blocked with 100 μL Odyssey blocking buffer (LI-COR) for 60 minutes at room temperature. […] Cells were washed 4 times for 5 minutes with TBST. Secondary antibody (IR-800CW rabbit, LI-COR, diluted 1:800) and DNA stain DRAQS (LI-COR, diluted 1:2000) were added and incubated 1-2 hours at room temperature. Cells were washed 4 times for 5 minutes with TBST. Plates were scanned on a Li-COR Odyssey CLx Imager. Analysis of raw data was carried out in Excel (Microsoft) and Prism (Graph Pad). Signal was plotted vs. the decadal logarithm of compound concentration, and IC50 was determined by fitting a 4-parameter sigmoidal concentration response model.

SMILES	IC50 (NCI-H358 (K-Ras G12C); Homo sapiens, NCI-H358, 120 h)	IC50 (NCI-H358 (K-Ras G12C))	EC50 [1]
C=CC(=O)N1CC[C@H](C(=O)N(C)[C@H](C(=O)N[C@H]2Cc3cc(O)cc(c3)-c3ccc4c(c3)c(c(-c3cccnc3[C@H](C)OC)n4CC)CC(C)(C)COC(=O)[C@@H]3CCCN(N3)C2=O)C(C)C)C1 (atropisomer, axis not shown; (M)) [Example A75, (2S)-N-[(8S,14S,20M)-22-ethyl-4-hydroxy-21-{2-[(1S)-1-methoxyethyl]pyridin-3-yl}-18,18-dimethyl-9,15-dioxo-16-oxa-10,22,28-triazapentacyclo[18.5.2.1^2,^6.1^10,^14.0^23,^27]nonacosa-1(26),2,4,6(29),20,23(27),24-heptaen-8-yl]-3-methyl-2-{N-methyl-1-[(3S)-1-(prop-2-enoyl)pyrrolidin-3-yl]formamido}butanamide]	10 to 100 nM	< 10 nM	< 5000 nM
C=CC(=O)N1CC[C@H](C(=O)N(C)[C@H](C(=O)N[C@H]2Cc3cc(O)cc(c3)-c3ccc4c(c3)c(c(-c3ccc(CN5CC[C@@H](O)C5)cc3)n4CC)CC(C)(C)COC(=O)[C@@H]3CCCN(N3)C2=O)C(C)C)C1 [Example A1]	100 to 1000 nM		< 5000 nM
C=CC(=O)N1CC[C@H](C(=O)N(C)[C@H](C(=O)N[C@H]2Cc3cc(N)cc(c3)-c3ccc4c(c3)c(c(-c3ccccc3CCOC)n4CC)CC(C)(C)COC(=O)[C@@H]3CCCN(N3)C2=O)C(C)C)C1 [Example A2, (2S)-N-[(8S,14S)-4-amino-22-ethyl-21-[2-(2-methoxyethyl)phenyl]-18,18-dimethyl-9,15-dioxo-16-oxa-10,22,28-triazapentacyclo[18.5.2.1^2,^6.1^10,^14.0^23,^27]nonacosa-1(26),2,4,6(29),20,23(27),24-heptaen-8-yl]-3-methyl-2-{N-methyl-1-[(3S)-1-(prop-2-enoyl)pyrrolidin-3-yl]formamido}butanamide]	> 1000 nM		< 5000 nM
C=CC(=O)N1CC[C@H](C(=O)N(C)[C@H](C(=O)N[C@H]2Cc3cc(O)cc(c3)-c3ccc4c(c3)c(c(-c3ccc(CN(C)C)cc3)n4CC)CC(C)(C)COC(=O)[C@@H]3CCCN(N3)C2=O)C(C)C)C1 [Example A3]	100 to 1000 nM		< 5000 nM
C=CC(=O)N1CC[C@H](C(=O)N(C)[C@H](C(=O)N[C@H]2Cc3cc(O)cc(c3)-c3ccc4c(c3)c(c(-c3ccccc3CN(C)C)n4CC)CC(C)(C)COC(=O)[C@@H]3CCCN(N3)C2=O)C(C)C)C1 [Example A5]	10 to 100 nM		< 5000 nM
C=CC(=O)N1CC[C@H](C(=O)N(C)[C@H](C(=O)N[C@H]2Cc3cc(O)cc(c3)-c3ccc4c(c3)c(c(-c3ccccc3CCOC)n4CC)CC(C)(C)COC(=O)[C@@H]3CCCN(N3)C2=O)C2CCOCC2)C1 [Example A6]	100 to 1000 nM		< 5000 nM
C=CC(=O)N1CC[C@H](C(=O)N(C)[C@H](C(=O)N[C@H]2Cc3cc(OC(=O)CCN4CCN(C)CC4)cc(c3)-c3ccc4c(c3)c(c(-c3ccccc3CCOC)n4CC)CC(C)(C)COC(=O)[C@@H]3CCCN(N3)C2=O)C(C)C)C1 [Example A7]	100 to 1000 nM		< 5000 nM
C=CC(=O)N1CC[C@H](C(=O)N(C)[C@H](C(=O)N[C@H]2Cc3cc(OC(=O)CN)cc(c3)-c3ccc4c(c3)c(c(-c3ccccc3CCOC)n4CC)CC(C)(C)COC(=O)[C@@H]3CCCN(N3)C2=O)C(C)C)C1 [Example A8]	100 to 1000 nM		< 5000 nM
C=CC(=O)N1CC[C@H](C(=O)N(C)[C@H](C(=O)N[C@H]2Cc3cc(cc(O)c3F)-c3ccc4c(c3)c(c(-c3ccccc3CCOC)n4CC)CC(C)(C)COC(=O)[C@@H]3CCCN(N3)C2=O)C(C)C)C1 [Example A9]	100 to 1000 nM		< 5000 nM
C=CC(=O)N1CC[C@H](C(=O)N(C)[C@H](C(=O)N[C@H]2Cc3cc(O)cc(c3)-c3ccc4c(c3)c(c(-c3ccc(CN5CCCC5)cc3)n4CC)CC(C)(C)COC(=O)[C@@H]3CCCN(N3)C2=O)C(C)C)C1 [Example A10]	10 to 100 nM		< 5000 nM
C=CC(=O)N1CCC(F)(C(=O)N(C)[C@H](C(=O)N[C@H]2Cc3cc(O)cc(c3)-c3ccc4c(c3)c(c(-c3ccccc3CCOC)n4CC)CC(C)(C)COC(=O)[C@@H]3CCCN(N3)C2=O)C(C)C)CC1 [Example A11]	100 to 1000 nM		< 5000 nM
C=CC(=O)N1CCCN(C(=O)N(C)[C@H](C(=O)N[C@H]2Cc3cc(O)cc(c3)-c3ccc4c(c3)c(c(-c3ccccc3CCOC)n4CC)CC(C)(C)COC(=O)[C@@H]3CCCN(N3)C2=O)C(C)C)CC1 [Example A13]	100 to 1000 nM		< 5000 nM
C=CC(=O)N1CCC(C(=O)N(C)[C@H](C(=O)N[C@H]2Cc3cc(O)cc(c3)-c3ccc4c(c3)c(c(-c3ccccc3CCOC)n4CC)CC(C)(C)COC(=O)[C@@H]3CCCN(N3)C2=O)C(C)C)CC1 [Example A14]	100 to 1000 nM		< 5000 nM
C=CC(=O)N1CC[C@H](C(=O)N(C)[C@H](C(=O)N[C@H]2Cc3cc(O)cc(c3)-c3ccc4c(c3)c(c(-c3cccnc3COC)n4CC)CC(C)(C)COC(=O)[C@@H]3CCCN(N3)C2=O)C(C)C)C1 [Example A16]	10 to 100 nM		< 5000 nM
C=CC(=O)N1CC[C@H](C(=O)N(C)[C@H](C(=O)N[C@H]2Cc3cc(O)cc(c3)-c3ccc4c(c3)c(c(-c3ccccc3OC)n4CC)CC(C)(C)COC(=O)[C@@H]3CCCN(N3)C2=O)C(C)C)C1 [Example A17]	100 to 1000 nM		< 5000 nM
C=CC(=O)N1CCN(C(=O)N(C)[C@H](C(=O)N[C@H]2Cc3cc(O)cc(c3)-c3ccc4c(c3)c(c(-c3ccccc3CCOC)n4CC)CC(C)(C)COC(=O)[C@@H]3CCCN(N3)C2=O)C(C)C)CC1 [Example A18]	100 to 1000 nM		< 5000 nM
CCn1c(-c2ccccc2CCOC)c2c3cc(ccc31)-c1cc(O)cc(c1)C[C@H](NC(=O)[C@H](C(C)C)N(C)C(=O)C1CCN(C(=O)/C=C/CN(C)C)CC1)C(=O)N1CCC[C@H](N1)C(=O)OCC(C)(C)C2 [Example A19]	100 to 1000 nM		< 5000 nM
C=CC(=O)N1CCC(F)(C(=O)N(C)[C@H](C(=O)N[C@H]2Cc3cc(O)cc(c3)-c3ccc4c(c3)c(c(-c3ccccc3CN(C)C)n4CC)CC(C)(C)COC(=O)[C@@H]3CCCN(N3)C2=O)C(C)C)CC1 [Example A20]	10 to 100 nM		< 5000 nM
C=CC(=O)N1CC[C@H](C(=O)N(C)[C@H](C(=O)N[C@H]2Cc3cc(O)cc(c3)-c3ccc4c(c3)c(c(-c3ccc(CC(=O)O)cc3)n4CC)CC(C)(C)COC(=O)[C@@H]3CCCN(N3)C2=O)C(C)C)C1 [Example A21]	> 1000 nM		< 5000 nM
C=CC(=O)N1CC[C@H](C(=O)N(C)[C@H](C(=O)N[C@H]2Cc3cc(O)cc(c3)-c3ccc4c(c3)c(c(-c3ccccc3[C@H](C)OC)n4CC)CC(C)(C)COC(=O)[C@@H]3CCCN(N3)C2=O)C(C)C)C1 [Example A22]	10 to 100 nM		< 5000 nM
C=CC(=O)N1CC[C@H](C(=O)N(C)[C@H](C(=O)N[C@H]2Cc3cc(O)cc(c3)-c3ccc4c(c3)c(c(-c3ccccc3)n4CC)CC(C)(C)COC(=O)[C@@H]3CCCN(N3)C2=O)C(C)C)C1 [Example A23]	100 to 1000 nM		< 5000 nM
C=CC(=O)N1CC[C@H](C(=O)N(C)[C@H](C(=O)N[C@H]2Cc3cc(O)cc(c3)-c3ccc4c(c3)c(c(-c3c(F)cccc3CCOC)n4CC)CC(C)(C)COC(=O)[C@@H]3CCCN(N3)C2=O)C(C)C)C1 [Example A25]	100 to 1000 nM		< 5000 nM
C=CC(=O)N1CC[C@H](C(=O)N(C)[C@H](C(=O)N[C@H]2Cc3cc(O)cc(c3)-c3ccc4c(c3)c(c(-c3ccccc3N3CCOCC3)n4CC)CC(C)(C)COC(=O)[C@@H]3CCCN(N3)C2=O)C(C)C)C1 [Example A26]	100 to 1000 nM		< 5000 nM

From patent publication US11566007B2, “Ras inhibitors” (Revolution Medicines, Inc., priority 2019, dated 2023)
